Results on 34 molecules are retold here after US8846698B2, “Pyrrolo[2,3-d]pyrimidine tropomysin-related kinase inhibitors” (Pfizer Limited, priority 2011, dated 2014).

The target in this assay is TRKA (Homo sapiens (Human), UniProt P04629). Nature of the assay: Isolated TRK enzyme assay (HTRF KinEASE-TK), TRKA. Particulars: read-out: Trka enzyme (IC50). The class given is biochemical.
TRKA, sequence (P04629 441-796): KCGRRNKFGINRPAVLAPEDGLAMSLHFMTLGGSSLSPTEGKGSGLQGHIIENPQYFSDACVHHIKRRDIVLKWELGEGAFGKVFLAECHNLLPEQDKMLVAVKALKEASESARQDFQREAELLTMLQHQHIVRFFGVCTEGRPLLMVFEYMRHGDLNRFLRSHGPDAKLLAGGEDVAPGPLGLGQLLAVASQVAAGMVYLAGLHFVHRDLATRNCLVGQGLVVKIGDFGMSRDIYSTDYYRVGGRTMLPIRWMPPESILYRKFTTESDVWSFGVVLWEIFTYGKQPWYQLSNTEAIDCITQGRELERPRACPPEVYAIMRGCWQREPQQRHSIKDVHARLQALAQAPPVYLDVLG

With `CN(C)C(=O)Cn1cc(C(=O)c2cncc(NC(=O)Cc3ccc(Cl)cc3)c2)c2cncnc21` [Example 304, 2-{5-[(5-{[(4-chlorophenyl)acetyl]amino}pyridin-3-yl)carbonyl]-7H-pyrrolo[2,3-d]pyrimidin-7-yl}-N,N-dimethylacetamide], the IC50 is 3900 nM.
Then `CNC(=O)Cn1cc(C(=O)c2cncc(NC(=O)Cc3ccc(Cl)cc3)c2)c2cncnc21` [Example 305, 2-(4-chlorophenyl)-N-[5-({7-[2-(methylamino)-2-oxoethyl]-7H-pyrrolo[2,3-d]pyrimidin-5-yl}carbonyl)pyridin-3-yl]acetamide], with 2640 nM; and `O=C(Cc1ccc(Cl)cc1)Nc1cncc(C(=O)c2c[nH]c3ncncc23)c1` [Example 308, 2-(4-Chlorophenyl)-N-[5-(7H-pyrrolo[2,3-d]pyrimidin-5-ylcarbonyl)pyridin-3-yl]acetamide], with 592 nM; and `CC1(n2cc(C(=O)c3cncc(NC(=O)Cc4ccc(Cl)cc4)c3)c3cncnc32)COC1` [Example 309, 2-(4-chlorophenyl)-N-(5-{[7-(3-methyloxetan-3-yl)-7H-pyrrolo[2,3-d]pyrimidin-5-yl]carbonyl}pyridin-3-yl)acetamide], with 53.9 nM.
Consider `CC1(n2cc(C(=O)c3cncc(NC(=O)Cc4ccc(Cl)cn4)c3)c3cncnc32)COC1` [Example 310, 2-(5-chloropyridin-2-yl)-N-(5-{[7-(3-methyloxetan-3-yl)-7H-pyrrolo[2,3-d]pyrimidin-5-yl]carbonyl}pyridin-3-yl)acetamide], for which the IC50 was 98.4 nM.
Then `CC1(n2cc(C(=O)c3cncc(NC(=O)Cn4ccc(C(F)(F)F)n4)c3)c3cncnc32)COC1` [Example 311, N-(5-{[7-(3-methyloxetan-3-yl)-7H-pyrrolo[2,3-d]pyrimidin-5-yl]carbonyl}pyridin-3-yl)-2-[3-(trifluoromethyl)-1H-pyrazol-1-yl]acetamide], with 238 nM.
Then `CC1(n2cc(C(=O)c3cncc(NC(=O)Cn4cc(C(F)(F)F)nn4)c3)c3cncnc32)COC1` [Example 312, N-(5-{[7-(3-methyloxetan-3-yl)-7H-pyrrolo[2,3-d]pyrimidin-5-yl]carbonyl}pyridin-3-yl)-2-[4-(trifluoromethyl)-1H-1,2,3-triazol-1-yl]acetamide], with 166 nM.
Then `CS(=O)(=O)Cn1cc(C(=O)c2cncc(NC(=O)Cc3ccc(Cl)cc3)c2)c2cncnc21` [Example 314, 2-(4-chlorophenyl)-N-[5-({7-[(methylsulfonyl)methyl]-7H-pyrrolo[2,3-d]pyrimidin-5-yl}carbonyl)pyridin-3-yl]acetamide], with 835 nM; and `CC(C)n1cc(C(=O)c2cncc(NC(=O)Cc3cnn(C4CC4)c3C(F)(F)F)c2)c2cncnc21` [Example 315, 2-(1-Cyclopropyl-5-trifluoromethyl-1H-pyrazol-4-yl)-N-[5-(7-isopropyl-7H-pyrrolo[2,3-d]pyrimidine-5-carbonyl)-pyridin-3-yl]-acetamide], with 39.1 nM.
On to `Cn1cc(C(=O)c2cncc(NC(=O)Cc3ccc(Cl)cc3)c2)c2cncnc21` [Example 319, 2-(4-chlorophenyl)-N-{5-[(7-methyl-7H-pyrrolo[2,3-d]pyrimidin-5-yl)carbonyl]pyridin-3-yl}acetamide], for which the IC50 is 188 nM.
Take `Cn1cc(C(=O)c2cncc(NC(=O)CCc3ccc(Cl)cc3)c2)c2cncnc21` [Example 320, 3-(4-chlorophenyl)-N-{5-[(7-methyl-7H-pyrrolo[2,3-d]pyrimidin-5-yl)carbonyl]pyridin-3-yl}propanamide]: the IC50 was 3100 nM.
For the molecule `Cc1cccc(CCC(=O)Nc2cncc(C(=O)c3cn(C)c4ncncc34)c2)c1` [Example 321, 3-(3-methylphenyl)-N-{5-[(7-methyl-7H-pyrrolo[2,3-d]pyrimidin-5-yl)carbonyl]pyridin-3-yl}propanamide], the IC50 amounted to 3100 nM.
Then `Cn1cc(C(=O)c2cncc(NC(=O)CCc3cccnc3)c2)c2cncnc21` [Example 322, N-{5-[(7-methyl-7H-pyrrolo[2,3-d]pyrimidin-5-yl)carbonyl]pyridin-3-yl}-3-(pyridin-3-yl)propanamide], with 9800 nM.
Then `Cn1cc(C(=O)c2cncc(NC(=O)CCc3cccc(Cl)c3)c2)c2cncnc21` [Example 323, 3-(3-chlorophenyl)-N-{5-[(7-methyl-7H-pyrrolo[2,3-d]pyrimidin-5-yl)carbonyl]pyridin-3-yl}propanamide], with 3100 nM; and `Cn1cc(C(=O)c2cncc(NC(=O)CCc3cccc(F)c3)c2)c2cncnc21` [Example 324, 3-(3-fluorophenyl)-N-{5-[(7-methyl-7H-pyrrolo[2,3-d]pyrimidin-5-yl)carbonyl]pyridin-3-yl}propanamide], with 3100 nM; and `Cn1cc(C(=O)c2cncc(NC(=O)COc3ccccc3OC(F)(F)F)c2)c2cncnc21` [Example 325, N-{5-[(7-methyl-7H-pyrrolo[2,3-d]pyrimidin-5-yl)carbonyl]pyridin-3-yl}-2-[2-(trifluoromethoxy)phenoxy]acetamide], with 111 nM.
Then `Cc1ccccc1CCC(=O)Nc1cncc(C(=O)c2cn(C)c3ncncc23)c1` [Example 326, 3-(2-methylphenyl)-N-{5-[(7-methyl-7H-pyrrolo[2,3-d]pyrimidin-5-yl)carbonyl]pyridin-3-yl}propanamide], with 2980 nM; and `Cn1cc(C(=O)c2cncc(NC(=O)CCc3ccccc3F)c2)c2cncnc21` [Example 327, 3-(2-fluorophenyl)-N-{5-[(7-methyl-7H-pyrrolo[2,3-d]pyrimidin-5-yl)carbonyl]pyridin-3-yl}propanamide], with 3100 nM; and `Cn1cc(C(=O)c2cncc(NC(=O)CCc3ccc(F)cc3)c2)c2cncnc21` [Example 328, 3-(4-fluorophenyl)-N-{5-[(7-methyl-7H-pyrrolo[2,3-d]pyrimidin-5-yl)carbonyl]pyridin-3-yl}propanamide], with 3100 nM.
Consider `Cn1cc(C(=O)c2cncc(NC(=O)CCc3ccccc3)c2)c2cncnc21` [Example 329, N-{5-[(7-methyl-7H-pyrrolo[2,3-d]pyrimidin-5-yl)carbonyl]pyridin-3-yl}-3-phenylpropanamide], for which the IC50 came to 9810 nM.
Turning to `Cc1ccc(CCC(=O)Nc2cncc(C(=O)c3cn(C)c4ncncc34)c2)cc1` [Example 330, 3-(4-methylphenyl)-N-{5-[(7-methyl-7H-pyrrolo[2,3-d]pyrimidin-5-yl)carbonyl]pyridin-3-yl}propanamide], the IC50 came out at 3100 nM.
As to `Cn1cc(C(=O)c2cncc(NC(=O)Cc3ccc(NS(=O)(=O)C(F)(F)F)cc3)c2)c2cncnc21` [Example 331, N-{5-[(7-methyl-7H-pyrrolo[2,3-d]pyrimidin-5-yl)carbonyl]pyridin-3-yl}-2-(4-{[(trifluoromethyl)sulfonyl]amino}phenyl)acetamide], the IC50 came to 9810 nM.
In the case of `Cn1cc(C(=O)c2cncc(NC(=O)COc3ccccc3)c2)c2cncnc21` [Example 332, N-{5-[(7-methyl-7H-pyrrolo[2,3-d]pyrimidin-5-yl)carbonyl]pyridin-3-yl}-2-phenoxyacetamide], the IC50 was found to be 2180 nM.
Then `COCc1ccc(CC(=O)Nc2cncc(C(=O)c3cn(C)c4ncncc34)c2)cc1` [Example 333, 2-[4-(methoxymethyl)phenyl]-N-{5-[(7-methyl-7H-pyrrolo[2,3-d]pyrimidin-5-yl)carbonyl]pyridin-3-yl}acetamide], with 9800 nM; and `Cn1cc(C(=O)c2cncc(NC(=O)COc3ccc(F)cc3)c2)c2cncnc21` [Example 334, 2-(4-fluorophenoxy)-N-{5-[(7-methyl-7H-pyrrolo[2,3-d]pyrimidin-5-yl)carbonyl]pyridin-3-yl}acetamide], with 1550 nM; and `Cn1cc(C(=O)c2cncc(NC(=O)C3(c4ccccc4)CC3)c2)c2cncnc21` [Example 336, N-{5-[(7-methyl-7H-pyrrolo[2,3-d]pyrimidin-5-yl)carbonyl]pyridin-3-yl}-1-phenylcyclopropanecarboxamide], with 9800 nM.
As for `Cn1cc(C(=O)c2cncc(NC(=O)C3Cc4ccccc4C3)c2)c2cncnc21` [Example 337, N-{5-[(7-methyl-7H-pyrrolo[2,3-d]pyrimidin-5-yl)carbonyl]pyridin-3-yl}indane-2-carboxamide], the IC50 stood at 4280 nM.
On to `C[C@@H](C(=O)Nc1cncc(C(=O)c2cn(C)c3ncncc23)c1)c1ccccc1` [Example 338, (2R)—N-{5-[(7-methyl-7H-pyrrolo[2,3-d]pyrimidin-5-yl)carbonyl]pyridin-3-yl}-2-phenylpropanamide], for which the IC50 stood at 2730 nM.
On to `CC(C)n1cc(C(=O)c2cncc(NC(=O)C(CO)c3ccccc3)c2)c2cncnc21` (stereo not shown) [Example 339, 3-hydroxy-2-phenyl-N-(5-{[7-(propan-2-yl)-7H-pyrrolo[2,3-d]pyrimidin-5-yl]carbonyl}pyridin-3-yl)propanamide], for which the IC50 was found to be 251 nM.
Then `COc1ccc2c(ccn2CC(=O)Nc2cncc(C(=O)c3cn(C(C)C)c4ncncc34)c2)c1` [Example 340, N-{5-[(7-isopropyl-7H-pyrrolo[2,3-d]pyrimidin-5-yl)carbonyl]-pyridin-3-yl}-2-(5-methoxy-1H-indol-1-yl)acetamide], with 451 nM.
Then `CC(C)n1cc(C(=O)c2cncc(NC(=O)c3cccc(Cl)c3)c2)c2cncnc21` [Example 343, 3-chloro-N-(5-{[7-(propan-2-yl)-7H-pyrrolo[2,3-d]pyrimidin-5-yl]carbonyl}pyridin-3-yl)benzamide], with 53.9 nM; and `CC(C)n1cc(C(=O)c2cncc(NC(=O)c3ccc(Cl)cc3)c2)c2cncnc21` [Example 344, 4-chloro-N-(5-{[7-(propan-2-yl)-7H-pyrrolo[2,3-d]pyrimidin-5-yl]carbonyl}pyridin-3-yl)benzamide], with 326 nM; and `CC(C)n1cc(C(=O)c2cncc(NC(=O)c3ccc(C(F)(F)F)cc3)c2)c2cncnc21` [Example 345, N-(5-{[7-(propan-2-yl)-7H-pyrrolo[2,3-d]pyrimidin-5-yl]carbonyl}pyridin-3-yl)-4-(trifluoromethyl)benzamide], with 362 nM.
Turning to `CC(C)n1cc(C(=O)c2cncc(NC(=O)c3ccc(OC(F)(F)F)cc3)c2)c2cncnc21` [Example 346, N-(5-{[7-(propan-2-yl)-7H-pyrrolo[2,3-d]pyrimidin-5-yl]carbonyl}pyridin-3-yl)-4-(trifluoromethoxy)benzamide], the IC50 was found to be 253 nM.
